In patent publication US12509444B2, “Compounds and methods for CD73 modulation and indications therefor” (Plexxikon Inc., priority 2019, dated 2025):
Values belong to the compound of their own block, whether it stands above or below them.

Experiments:
[1] = target: T1, Human CD73 (amino acid residues 27-549) (Homo sapiens, UniProt P21589); test: CD73 enzymatic assay (luciferase-based indirect assay, CellTiter-Glo); assay type: biochemical; details: 0.4 nM CD73, 150 μM AMP, 1 hour at room temperature
T1 construct: Human CD73 (amino acid residues 27-549); His tag (N); made in house; host or cells: E. coli
T1 sequence (P21589 27-549): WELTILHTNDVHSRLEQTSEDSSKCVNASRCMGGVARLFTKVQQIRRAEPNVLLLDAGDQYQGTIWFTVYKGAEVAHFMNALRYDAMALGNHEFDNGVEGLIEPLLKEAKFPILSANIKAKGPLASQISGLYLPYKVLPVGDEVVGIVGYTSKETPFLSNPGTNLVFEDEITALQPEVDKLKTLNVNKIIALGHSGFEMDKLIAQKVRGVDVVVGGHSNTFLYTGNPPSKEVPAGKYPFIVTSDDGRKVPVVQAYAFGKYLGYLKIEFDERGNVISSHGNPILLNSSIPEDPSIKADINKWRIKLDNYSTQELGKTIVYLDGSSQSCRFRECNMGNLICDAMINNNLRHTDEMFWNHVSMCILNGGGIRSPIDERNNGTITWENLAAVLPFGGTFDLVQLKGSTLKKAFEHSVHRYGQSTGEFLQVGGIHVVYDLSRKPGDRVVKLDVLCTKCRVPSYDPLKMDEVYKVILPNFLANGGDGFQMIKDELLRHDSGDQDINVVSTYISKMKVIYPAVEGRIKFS
How it was run: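 His-tagged human CD73 (27-549) from E. coli, 0.4 nM, with 150 μM AMP in 50 mM HEPES pH 7.4, 0.01% Tween 20; 1 h at room temperature. AMP remaining read by CellTiter-Glo 2.0 luminescence with 1 μM final ATP after 30 min. IC50 from nonlinear regression of % inhibition.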

[2] = target: T2, human CD73 (Homo sapiens, UniProt P21589); test: Inhibitor activity against CD73 in cell based assay (CD73 expressing CHO-K1 cells); details: CHO-K1 cells expressing human CD73, 150 μM AMP, 4 hours of incubation; read-out: CHO-K1 CELL VARIANT: CD73 IC50
T2 construct: expressed in transfected cells
T2 sequence (P21589 27-549): T1 sequence (P21589 27-549)
How it was run: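 Stably transfected CHO-K1 cells expressing human CD73 (1×10^4/well) incubated 4 h with compound (8-point 1:3 titration, top 10 μM final, 0.2% DMSO) and 150 μM AMP. Residual AMP in supernatant measured by CellTiter-Glo luminescence with 1 μM ATP after 30 min at room temperature; IC50 by nonlinear regression of percent inhibition vs high/low controls.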

SMILES: N#Cc1c(N2C[C@H](OC(=O)NC3CCCC3)[C@@H](F)C2)cn[nH]c1=O [P-0484, (3S,4S)-1-(5-cyano-6-oxo-1,6-dihydropyridazin-4-yl)-4-fluoropyrrolidin-3-yl cyclopentylcarbamate]
IC50 [1]: 0.001 to 10 µM
IC50 [2]: 0.001 to 10 µM

SMILES: O=C(NC1CCN(C(=O)C(F)(F)F)CC1)N[C@@H]1CCN(c2cn[nH]c(=O)c2Cl)C1 [P-0047, (R)-1-(1-(5-chloro-6-oxo-1,6-dihydropyridazin-4-yl)pyrrolidin-3-yl)-3-(1-(2,2,2-trifluoroacetyl)piperidin-4-yl)urea]
IC50 [1]: 0.001 to 10 µM
IC50 [2]: 10 to 100 µM

SMILES: O=C(Nc1ccc(F)cc1)N[C@H]1C[C@H](NC(=O)O[C@@H]2CCN(c3cn[nH]c(=O)c3Cl)C2)C1 [P-0168, (R)-1-(5-chloro-6-oxo-1,6-dihydropyridazin-4-yl)pyrrolidin-3-yl ((1r,3R)-3-(3-(4-fluorophenyl)ureido)cyclobutyl) carbamate]
IC50 [1]: 0.001 to 10 µM
IC50 [2]: 0.001 to 10 µM

SMILES: O=C(O)Cn1ncc(N2CC[C@@H](OC(=O)NC3CCC(F)(F)CC3)C2)cc1=O [P-0283, (R)-2-(4-(3-(((4,4-difluorocyclohexyl)carbamoyl)oxy)pyrrolidin-1-yl)-6-oxopyridazin-1(6H)-yl)acetic acid]
IC50 [1]: 100 to 1000 µM
IC50 [2]: 10 to 100 µM

SMILES: CC1(NC(=O)c2ccccc2)CCC(NC(=O)O[C@@H]2CCN(c3cn[nH]c(=O)c3Cl)C2)CC1 (stereo partly drawn) [P-0357, (R)-1-(5-chloro-6-oxo-1,6-dihydropyridazin-4-yl)pyrrolidin-3-yl (4-benzamido-4-methylcyclohexyl)carbamate]
IC50 [1]: 0.001 to 10 µM
IC50 [2]: 0.001 to 10 µM

SMILES: O=C(NCC(F)(F)F)O[C@@H]1CCN(c2cn[nH]c(=O)c2Cl)C1 [P-0096, (R)-1-(5-chloro-6-oxo-1,6-dihydropyridazin-4-yl)pyrrolidin-3-yl (2,2,2-trifluoroethyl)carbamate]
IC50 [1]: 0.001 to 10 µM
IC50 [2]: 0.001 to 10 µM

SMILES: O=C(NC1CCN(C(=O)c2cccnc2)CC1)O[C@@H]1CCN(c2cn[nH]c(=O)c2Cl)C1 [P-0416, (R)-1-(5-chloro-6-oxo-1,6-dihydropyridazin-4-yl)pyrrolidin-3-yl (1-nicotinoylpiperidin-4-yl)carbamate]
IC50 [1]: 0.001 to 10 µM
IC50 [2]: 0.001 to 10 µM

SMILES: N#CC1(NC(=O)O[C@@H]2CCN(c3cn[nH]c(=O)c3Cl)C2)CCC1 [P-0515, (R)-1-(5-chloro-6-oxo-1,6-dihydropyridazin-4-yl)pyrrolidin-3-yl (1-cyanocyclobutyl)carbamate]
IC50 [1]: 0.001 to 10 µM
IC50 [2]: 0.001 to 10 µM

SMILES: O=C(N[C@H]1CC[C@H](NC(=O)c2c(F)cccc2F)CC1)O[C@@H]1CCN(c2cn[nH]c(=O)c2Cl)C1 [P-0267, (R)-1-(5-chloro-6-oxo-1,6-dihydropyridazin-4-yl)pyrrolidin-3-yl ((1r,4R)-4-(2,6-difluorobenzamido)cyclohexyl) carbamate]
IC50 [1]: 0.001 to 10 µM
IC50 [2]: 0.001 to 10 µM

SMILES: CC1(NC(=O)O[C@@H]2CCN(c3cn[nH]c(=O)c3Cl)C2)CC(F)(F)C1 [P-0432, (R)-1-(5-chloro-6-oxo-1,6-dihydropyridazin-4-yl)pyrrolidin-3-yl (3,3-difluoro-1-methylcyclobutyl)carbamate]
IC50 [1]: 0.001 to 10 µM
IC50 [2]: 0.001 to 10 µM

SMILES: O=C(NC1CCN(C(=O)C2(c3cccc(Br)c3)CC2)CC1)O[C@@H]1CCN(c2cn[nH]c(=O)c2Cl)C1 [P-0465, (R)-1-(5-chloro-6-oxo-1,6-dihydropyridazin-4-yl)pyrrolidin-3-yl (1-(1-(3-bromophenyl)cyclopropane-1-carbonyl)piperidin-4-yl)carbamate]
IC50 [1]: 0.001 to 10 µM
IC50 [2]: 0.001 to 10 µM

SMILES: O=C(NC1CC2(C1)CN(C(=O)Nc1ccc(F)cc1)C2)O[C@@H]1CCN(c2cn[nH]c(=O)c2Cl)C1 [P-0198, (R)-1-(5-chloro-6-oxo-1,6-dihydropyridazin-4-yl)pyrrolidin-3-yl (2-((4-fluorophenyl)carbamoyl)-2-azaspiro[3.3]heptan-6-yl)carbamate]
IC50 [1]: 0.001 to 10 µM
IC50 [2]: 10 to 100 µM

Results, then the compound that gave them:

IC50 [1]: 0.001 to 10 µM
IC50 [2]: 0.001 to 10 µM
SMILES: CCCS(=O)(=O)N[C@H]1CC[C@H](NC(=O)O[C@@H]2CCN(c3cn[nH]c(=O)c3Cl)C2)CC1 [P-0142, (R)-1-(5-chloro-6-oxo-1,6-dihydropyridazin-4-yl)pyrrolidin-3-yl ((1r,4R)-4-(propylsulfonamido)cyclohexyl)carbamate]

IC50 [1]: 0.001 to 10 µM
IC50 [2]: 0.001 to 10 µM
SMILES: N#CCS(=O)(=O)N[C@H]1CC[C@H](NC(=O)O[C@@H]2CCN(c3cn[nH]c(=O)c3Cl)C2)CC1 [P-0307, (R)-1-(5-chloro-6-oxo-1,6-dihydropyridazin-4-yl)pyrrolidin-3-yl ((1r,4R)-4-((cyanomethyl)sulfonamido)cyclohexyl)carbamate]

IC50 [1]: 0.001 to 10 µM
IC50 [2]: 0.001 to 10 µM
SMILES: CC1CCCC1NC(=O)O[C@@H]1CCN(c2cnn(CCO)c(=O)c2Cl)C1 (stereo partly drawn) [P-0450, (R)-1-(5-chloro-1-(2-hydroxyethyl)-6-oxo-1,6-dihydropyridazin-4-yl)pyrrolidin-3-yl (2-methylcyclopentyl)carbamate]

IC50 [1]: 0.001 to 10 µM
IC50 [2]: 0.001 to 10 µM
SMILES: CC(=O)N[C@H]1CC[C@H](NC(=O)O[C@@H]2CCN(c3cn[nH]c(=O)c3Cl)C2)CC1 [P-0165, (R)-1-(5-chloro-6-oxo-1,6-dihydropyridazin-4-yl)pyrrolidin-3-yl ((1r,4R)-4-acetamidocyclohexyl)carbamate]

IC50 [1]: 0.001 to 10 µM
IC50 [2]: 0.001 to 10 µM
SMILES: N#Cc1c(N2C[C@H](OC(=O)NC3CCC(F)(F)CC3)[C@@H](F)C2)cnn(CCO)c1=O [P-0485, (3S,4S)-1-(5-cyano-1-(2-hydroxyethyl)-6-oxo-1,6-dihydropyridazin-4-yl)-4-fluoropyrrolidin-3-yl (4,4-difluorocyclohexyl)carbamate]

IC50 [1]: 0.001 to 10 µM
IC50 [2]: 0.001 to 10 µM
SMILES: Cn1ncc(N2CC[C@@H](OC(=O)N[C@H]3CC[C@H](NS(=O)(=O)c4c(F)cccc4F)CC3)C2)c(Cl)c1=O [P-0238, (R)-1-(5-chloro-1-methyl-6-oxo-1,6-dihydropyridazin-4-yl)pyrrolidin-3-yl ((1r,4R)-4-((2,6-difluorophenyl)sulfonamido)cyclohexyl)carbamate]

IC50 [1]: 0.001 to 10 µM
IC50 [2]: 0.001 to 10 µM
SMILES: C[C@@H]1CCCC[C@H]1NC(=O)O[C@@H]1CCN(c2cn[nH]c(=O)c2Cl)C1 [P-0335, (R)-1-(5-chloro-6-oxo-1,6-dihydropyridazin-4-yl)pyrrolidin-3-yl ((1R,2R)-2-methylcyclohexyl)carbamate]

IC50 [1]: 0.001 to 10 µM
IC50 [2]: 0.001 to 10 µM
SMILES: O=C(N[C@@H]1CCC[C@@H]1C(F)(F)F)O[C@@H]1CCN(c2cnn(CCO)c(=O)c2Cl)C1 [P-0478, (R)-1-(5-chloro-1-(2-hydroxyethyl)-6-oxo-1,6-dihydropyridazin-4-yl)pyrrolidin-3-yl ((1R,2S)-2-(trifluoromethyl)cyclopentyl) carbamate]

IC50 [1]: 0.001 to 10 µM
IC50 [2]: 0.001 to 10 µM
SMILES: O=C(NC1CCC(F)(F)CC1)O[C@H]1CN(c2cnn(CCO)c(=O)c2Cl)C[C@@H]1F [P-0474, (3S,4S)-1-(5-chloro-1-(2-hydroxyethyl)-6-oxo-1,6-dihydropyridazin-4-yl)-4-fluoropyrrolidin-3-yl (4,4-difluorocyclohexyl)carbamate]

IC50 [1]: 0.001 to 10 µM
IC50 [2]: 0.001 to 10 µM
SMILES: O=C(N[C@@H]1CCOC1)O[C@@H]1CCN(c2cn[nH]c(=O)c2Cl)C1 [P-0108, (R)-1-(5-chloro-6-oxo-1,6-dihydropyridazin-4-yl)pyrrolidin-3-yl ((R)-tetrahydrofuran-3-yl)carbamate]

IC50 [1]: 0.001 to 10 µM
IC50 [2]: 0.001 to 10 µM
SMILES: O=C(NC1CCCC1=O)O[C@@H]1CCN(c2cn[nH]c(=O)c2Cl)C1 (stereo partly drawn) [P-0461, (R)-1-(5-chloro-6-oxo-1,6-dihydropyridazin-4-yl)pyrrolidin-3-yl (2-oxocyclopentyl)carbamate]

IC50 [1]: 0.001 to 10 µM
IC50 [2]: 0.001 to 10 µM
SMILES: O=C(N[C@@H]1CCC(F)(F)C1)O[C@@H]1CCN(c2cnn(CCO)c(=O)c2Cl)C1 [P-0467, (R)-1-(5-chloro-1-(2-hydroxyethyl)-6-oxo-1,6-dihydropyridazin-4-yl)pyrrolidin-3-yl ((R)-3,3-difluorocyclopentyl)carbamate]

IC50 [1]: 0.001 to 10 µM
IC50 [2]: 0.001 to 10 µM
SMILES: Cn1ncc(N2CC[C@@H](OC(=O)N[C@H]3CC[C@@H](NC(=O)c4ccccc4)CC3)C2)c(Cl)c1=O [P-0211, (R)-1-(5-chloro-1-methyl-6-oxo-1,6-dihydropyridazin-4-yl)pyrrolidin-3-yl ((1s,4S)-4-benzamidocyclohexyl) carbamate]

IC50 [1]: 0.001 to 10 µM
IC50 [2]: 0.001 to 10 µM
SMILES: O=C(N[C@H]1CC[C@@H](O)C1)O[C@@H]1CCN(c2cn[nH]c(=O)c2Cl)C1 [P-0459, (R)-1-(5-chloro-6-oxo-1,6-dihydropyridazin-4-yl)pyrrolidin-3-yl ((1S,3R)-3-hydroxycyclopentyl)carbamate]
